The NIST ThermoML archive (doi:10.1016/j.fluid.2014.09.014)

Assay: refractive index (other wavelength) (dimensionless); xn = mol fraction of the nth substance listed
Settings: 293.5 K, 101 kPa, Liquid, Standard Abbe refractometry

CC(C)OC(C)C [diisopropyl ether] + CC(C)O
refractive index
Settings	Wavelength=404.7 nm	Wavelength=435.8 nm	Wavelength=486.1 nm	Wavelength=546.1 nm	Wavelength=587.6 nm	Wavelength=589.3 nm	Wavelength=632.8 nm
x1 = 0.0277	1.388	1.38493	1.38147	1.3786	1.37708	1.37703	1.37572
x1 = 0.0507	1.3879	1.38485	1.38137	1.3785	1.37699	1.37693	1.37562
x1 = 0.051	1.38799	1.38492	1.38146	1.37859	1.37708	1.37702	1.3757
x1 = 0.0717	1.38774	1.38468	1.38121	1.37834	1.37683	1.37678	1.37545
x1 = 0.1528	1.38719	1.38413	1.38066	1.37779	1.37629	1.37623	1.37492
x1 = 0.1553	1.38719	1.38413	1.38066	1.37779	1.37629	1.37623	1.37492
x1 = 0.1938	1.38688	1.38381	1.38034	1.37747	1.37597	1.37591	1.37461
x1 = 0.2029	1.38669	1.38364	1.38016	1.3773	1.3758	1.37574	1.37443
x1 = 0.245	1.3865	1.38325	1.37977	1.37692	1.37541	1.37536	1.37405
x1 = 0.297	1.38605	1.383	1.37951	1.37666	1.37514	1.37509	1.37378
x1 = 0.2973	1.38627	1.3832	1.37973	1.37687	1.37535	1.3753	1.374
x1 = 0.3068	1.38571	1.38264	1.37919	1.37631	1.37481	1.37475	1.37345
x1 = 0.398	1.38461	1.38154	1.37808	1.37522	1.37371	1.37366	1.37236
x1 = 0.4609	1.38404	1.38098	1.37753	1.37466	1.37315	1.3731	1.3718
x1 = 0.5434	1.38333	1.38026	1.37682	1.37395	1.37246	1.3724	1.37111
x1 = 0.6032	1.38277	1.37972	1.37624	1.3734	1.37188	1.37182	1.37052
x1 = 0.6371	1.3824	1.37934	1.37588	1.37304	1.37152	1.37146	1.37017
x1 = 0.701	1.38179	1.37873	1.37528	1.37243	1.37093	1.37087	1.36958
x1 = 0.754	1.38141	1.37834	1.3749	1.37205	1.37055	1.37049	1.3692
x1 = 0.791	1.38107	1.37802	1.37455	1.37172	1.37022	1.37016	1.36887
x1 = 0.8296	1.38071	1.37766	1.37423	1.37135	1.36987	1.36982	1.36854
x1 = 0.8864	1.38051	1.37747	1.374	1.37116	1.36966	1.36961	–
x1 = 0.8903	1.38011	1.37706	1.37363	1.37076	1.36928	1.36922	–
x1 = 0.9113	1.37989	1.37684	1.37339	1.37055	1.36905	1.369	–
x1 = 0.9547	1.37948	1.37645	1.37301	1.37015	1.36866	1.36861	–
x1 = 0.973	1.37918	1.37614	1.37271	1.36984	1.36836	1.3683	–
x1 = 0.9771	1.37921	1.37617	1.37274	1.36988	1.36839	1.36834	–
x1 = 1	1.37888	1.37585	1.37241	1.36955	1.36806	1.36801	–
